Test results published in US11434194B2, “Amorphous form of vilanterol trifenatate and processes for the preparation thereof” (Hovione Scientia Limited, priority 2017, dated 2022).
One block for each compound: values may come before it.

Assays:
Assay type in all cases: physicochemical
[1] = Visual solubility in differing solvents (European Pharmacopeia 6.0 section 5.11)
Description: Visual solubility of the amorphous form of the invention in differing solvents was assessed according to the procedure described in the European Pharmacopeia 6.0 section 5.11. p. 659 (see corresponding SI dissolution ranges in Table 2), and compared with that for Form 1. The following method was used: Dissolving procedure: the compound was shaken vigorously for 1 min and placed in a constant temperature device for 15 min at 25.0±0.5° C. If the compound was not completely dissolved, the shaking was repeated for 1 min and the tube placed in a constant temperature device for 15 min. Method: 50 mg of compound was weighed in a stoppered tube, 0.05 mL of the solvent added and the Dissolving Procedure (see above) followed. If the compound was completely dissolved, it was defined very soluble. If the compound was not completely dissolved, a further 0.45 mL of the solvent was added and the Dissolving Procedure (see above) followed. […] If the compound was still not completely dissolved, still further 1.0 mL of the solvent was added and the Dissolving Procedure (see above) followed. If the compound was completely dissolved, it was defined as soluble. If the compound was still not completely dissolved, another 3.5 mL of the solvent was added and the Dissolving Procedure (see above) followed. […] If the compound was still not completely dissolved, the compound was slightly soluble or very slightly soluble. In this case, the suspension was heated up to the boiling point (max 80° C.) under stirring to verify the solubility at high temperature. The hot solution was afterwards cooled to room temperature to observe whether the compound precipitates. If the compound at room, temperature was completely dissolved, it is soluble at high temperature. [table]

[2] = Solid-state storage stability (XRPD pattern, HPLC chromatogram)
Description: Such conditions reflect conditions similar to those in which the current medicaments (mentioned above) may be stored.
HPLC analysis was conducted using a waters system under the following conditions:
X-ray powder patterns were recorded using the PANalytical X'Pert PRO X-ray diffraction system equipped with a PW3373/00 Cu LFF DK184511 X-Ray tube and a X'Celerator RTMS (Real Time Multiple Strip) detector under the following conditions: […]

[3] = Dynamic vapour sorption (DVS) analysis / kinetic moisture sorption, hygroscopicity; conditions: for Change In Mass (%) Desorption / Change In Mass (%) Hysteresis / Change In Mass (%) Sorption: 25° C.
Description: The values in the table are weight % variations that result from the use of the European Pharmacopoeia equation provided below. The hygroscopicity value is indicated from the sorption row at 80% RH of cycle 1.
The sample was subjected to DVS measuring using SMS-DVS intrinsic. The kinetic moisture sorption measurement was performed at 25° C. and in a RH % range described in the following: • From 40% RH to 90% RH • Form 90% RH to 0% RH • From 0% RH to 90% RH • From 90% RH to 0% RH
The sample was analyzed by XRPD after the analysis.
The hygroscopicity was calculated using the following equation: % Weight Change=[(W2−W1)/W1]*100, (1) wherein W1 is the weight of the sample at the start of the experiment (25° C. and 40% RH), and W2 is the weight of the sample at 25° C. and 80% RH in the first absorption cycle.

visual solubility ([1]; 1,4-dioxane at 25° C.): freely soluble | visual solubility ([1]; THF at 25° C.): freely soluble | visual solubility ([1]; ethanol at 25° C.): sparingly soluble | visual solubility ([1]; methanol at 25° C.): soluble
SMILES: OCc1cc([C@@H](O)CNCCCCCCOCCOCc2c(Cl)cccc2Cl)ccc1O [Form I, 4-((1R)-2-((6-(2-((2,6-Dichlorophenyl)methoxy)ethoxy)-hexyl)amino)-1-hydroxyethyl)-2-(hydroxymethyl)phenol triphenylacetate]

XRPD patterns before and after exposure ([2]; 60% RH at 25° C. (7 days)): unchanged | time stable on storage (XRPD pattern and HPLC chromatograms remained the same) ([2]; room temperature): at least 5 months | visual solubility ([1]; 1,4-dioxane at 25° C., listed as amorphous of vilanterol trifenatate): soluble | visual solubility ([1]; ethanol at 50° C.): sparingly soluble | mass increase (dynamic vapour sorption analysis; hygroscopicity value) ([3]; 80% RH at 25° C., sorption, cycle 1): 1.34% | hygroscopicity classification (European Pharmacopeia version 7) ([3]; % weight change from 40% RH to 80% RH at 25° C., first absorption cycle): slightly hygroscopic | Change In Mass (%) Desorption ([3]; Cycle 1, target RH 0.0%): 1.186% | Change In Mass (%) Desorption ([3]; Cycle 1, target RH 10.0%): 1.224% | Change In Mass (%) Desorption ([3]; Cycle 1, target RH 20.0%): 1.257% | Change In Mass (%) Desorption ([3]; Cycle 1, target RH 30.0%): 1.298% | Change In Mass (%) Desorption ([3]; Cycle 1, target RH 40.0%): 1.333% | Change In Mass (%) Hysteresis ([3]; Cycle 1, target RH 40.0%): 1.332% | Change In Mass (%) Sorption ([3]; Cycle 1, target RH 40.0%): 0.001% | Change In Mass (%) Desorption ([3]; Cycle 1, target RH 50.0%): 1.368% | Change In Mass (%) Hysteresis ([3]; Cycle 1, target RH 50.0%): 1.101% | Change In Mass (%) Sorption ([3]; Cycle 1, target RH 50.0%): 0.267% | Change In Mass (%) Desorption ([3]; Cycle 1, target RH 60.0%): 1.401% | Change In Mass (%) Hysteresis ([3]; Cycle 1, target RH 60.0%): 0.784% | Change In Mass (%) Sorption ([3]; Cycle 1, target RH 60.0%): 0.618% | Change In Mass (%) Desorption ([3]; Cycle 1, target RH 70.0%): 1.437% | Change In Mass (%) Hysteresis ([3]; Cycle 1, target RH 70.0%): 0.423% | Change In Mass (%) Sorption ([3]; Cycle 1, target RH 70.0%): 1.013% | Change In Mass (%) Desorption ([3]; Cycle 1, target RH 80.0%): 1.474% | Change In Mass (%) Hysteresis ([3]; Cycle 1, target RH 80.0%): 0.131% | Change In Mass (%) Sorption ([3]; Cycle 1, target RH 80.0%): 1.344% | Change In Mass (%) Desorption ([3]; Cycle 1, target RH 90.0%): 1.516% | Change In Mass (%) Sorption ([3]; Cycle 1, target RH 90.0%): 1.516% | Change In Mass (%) Desorption ([3]; Cycle 2, target RH 0.0%): 1.063% | Change In Mass (%) Sorption ([3]; Cycle 2, target RH 0.0%): 1.186% | Change In Mass (%) Desorption ([3]; Cycle 2, target RH 10.0%): 1.186% | Change In Mass (%) Hysteresis ([3]; Cycle 2, target RH 10.0%): 0.006% | Change In Mass (%) Sorption ([3]; Cycle 2, target RH 10.0%): 1.180% | Change In Mass (%) Desorption ([3]; Cycle 2, target RH 20.0%): 1.214% | Change In Mass (%) Hysteresis ([3]; Cycle 2, target RH 20.0%): 0.035% | Change In Mass (%) Sorption ([3]; Cycle 2, target RH 20.0%): 1.179% | Change In Mass (%) Desorption ([3]; Cycle 2, target RH 30.0%): 1.243% | Change In Mass (%) Hysteresis ([3]; Cycle 2, target RH 30.0%): 0.061% | Change In Mass (%) Sorption ([3]; Cycle 2, target RH 30.0%): 1.182% | Change In Mass (%) Desorption ([3]; Cycle 2, target RH 40.0%): 1.269% | Change In Mass (%) Hysteresis ([3]; Cycle 2, target RH 40.0%): 0.079% | Change In Mass (%) Sorption ([3]; Cycle 2, target RH 40.0%): 1.189% | Change In Mass (%) Desorption ([3]; Cycle 2, target RH 50.0%): 1.294% | Change In Mass (%) Hysteresis ([3]; Cycle 2, target RH 50.0%): 0.090% | Change In Mass (%) Sorption ([3]; Cycle 2, target RH 50.0%): 1.205% | Change In Mass (%) Desorption ([3]; Cycle 2, target RH 60.0%): 1.320% | Change In Mass (%) Hysteresis ([3]; Cycle 2, target RH 60.0%): 0.093% | Change In Mass (%) Sorption ([3]; Cycle 2, target RH 60.0%): 1.228% | Change In Mass (%) Desorption ([3]; Cycle 2, target RH 70.0%): 1.345% | Change In Mass (%) Hysteresis ([3]; Cycle 2, target RH 70.0%): 0.084% | Change In Mass (%) Sorption ([3]; Cycle 2, target RH 70.0%): 1.262% | Change In Mass (%) Desorption ([3]; Cycle 2, target RH 80.0%): 1.369% | Change In Mass (%) Hysteresis ([3]; Cycle 2, target RH 80.0%): 0.061% | Change In Mass (%) Sorption ([3]; Cycle 2, target RH 80.0%): 1.308% | Change In Mass (%) Desorption ([3]; Cycle 2, target RH 90.0%): 1.393% | Change In Mass (%) Sorption ([3]; Cycle 2, target RH 90.0%): 1.393%
SMILES: OCc1cc([C@@H](O)CNCCCCCCOCCOCc2c(Cl)cccc2Cl)ccc1O [amorphous vilanterol trifenatate, 4-((1R)-2-((6-(2-((2,6-Dichlorophenyl)methoxy)ethoxy)-hexyl)amino)-1-hydroxyethyl)-2-(hydroxymethyl)phenol triphenylacetate]
